Consider 6 compounds from ChEMBL document CHEMBL4177762, “Combined Approach of Backbone Amide Linking and On-Resin N-Methylation for the Synthesis of Bioactive and Metabolically Stable Peptides” (J Med Chem, 2018).

A word on the half-life: it is how long it takes for the measured level to halve. Higher therefore signals slow decline. A word on the IC50: it is the concentration at which inhibition is half-maximal. A lower IC50 goes with greater potency.

Data set [1] relates to Trypanosoma brucei rhodesiense. Briefly: Antiprotozoal activity against trypomastigote stage of Trypanosoma brucei rhodesiense STIB900 after 72 hrs by Alamar Blue assay. Type of data set: functional, organism-based.
Data set [2] deals with Staphylococcus aureus. Put plainly: Antibacterial activity against Staphylococcus aureus ATCC 29213 assessed as growth inhibition up to 128 ug/ml. Type of data set: functional, organism-based.
In data set [3] the test system is Staphylococcus aureus. Put plainly: Antibacterial activity against methicillin-resistant Staphylococcus aureus ATCC 43300 assessed as growth inhibition up to 128 ug/ml. Type of data set: functional, organism-based.
The next data set concerns Enterococcus faecalis. Put plainly: Antibacterial activity against Enterococcus faecalis ATCC 29212 assessed as growth inhibition up to 128 ug/ml. The format is functional, organism-based.
In the next data set the test system is Micrococcus luteus. Briefly: Antibacterial activity against Micrococcus luteus ATCC 9341 assessed as growth inhibition up to 128 ug/ml. Type of data set: functional, organism-based.
The subject of a further data set is Escherichia coli. Briefly: Antibacterial activity against Escherichia coli ATCC 25922 assessed as growth inhibition up to 128 ug/ml. Type of data set: functional, organism-based.
A further data set relates to Pseudomonas aeruginosa. Put plainly: Antibacterial activity against Pseudomonas aeruginosa ATCC 27853 assessed as growth inhibition up to 128 ug/ml. The format is functional, organism-based.
Data set [4] is described as follows: Half life in Galleria mellonella hemolymph plasma at 0.5 mM by HPLC-MS method. Type of data set: ADME, cell-free.
Data set [5] is described as follows: Drug metabolism in Sprague-Dawley rat liver microsomes assessed as CYP450-mediated (S)-2-((S)-N,3-dimethyl-2-(methylamino)butanamido)-N-((S)-1-(((S)-1-(4-hydroxyphenethylamino)-3-methyl-1-oxobutan-2-yl)(methyl)amino)-3-methyl-1-oxobutan-2-yl)-N,3-dimethylbutanamide formation at 1 mM preincubated with NADPH regenerating system followed by microsome addition measured after 15 to 60 mins by HR-HPLC-MS method. The format is ADME. The following applies: 1000 µM. Background: Liver microsomes are a subcellular fraction often used to study metabolism.

A short description of data set [6]: Drug metabolism in Sprague-Dawley rat liver microsomes assessed as CYP450-mediated (S)-3-hydroxy-N,3-dimethyl-N-((S)-3-methyl-1-(methyl((S)-3-methyl-1-(methyl((S)-3-methyl-1-oxo-1-(phenethylamino)butan-2-yl)amino)-1-oxobutan-2-yl)amino)-1-oxobutan-2-yl)-2-(methylamino)butanamide formation at 1 mM preincubated with NADPH regenerating system followed by microsome addition measured after 15 to 60 mins by HR-HPLC-MS method. The format is ADME. The settings on record: 1000 µM.

For the next data set, the system named is L6. Briefly: Cytotoxicity against rat L6 cells after 72 hrs by Alamar Blue assay. Type of data set: cell-based. The following applies: L6, 72 h. A general note: Alamar Blue is a resazurin reagent that responds to reducing activity.
The nature of data set [7]: Drug level in Sprague-Dawley rat liver microsomes assessed as CYP450-mediated compound formation treated with (S)-2-((S)-N,3-dimethyl-2-(methylamino)butanamido)-N,3-dimethyl-N-((S)-3-methyl-1-(methyl((S)-3-methyl-1-oxo-1-(phenethylamino)butan-2-yl)amino)-1-oxobutan-2-yl)butanamide at 1 mM preincubated with NADPH regenerating system followed by microsome addition measured after 15 to 60 mins by HR-HPLC-MS method. Type of data set: ADME. The settings on record: 1000 µM.

Data set [8] can be described thus: Drug metabolism in Sprague-Dawley rat liver microsomes assessed as CYP450-mediated (S)-2-amino-N-((S)-1-((S)-1-((S)-1-(4-hydroxyphenethylamino)-3-methyl-1-oxobutan-2-ylamino)-3-methyl-1-oxobutan-2-ylamino)-3-methyl-1-oxobutan-2-yl)-3-methylbutanamide formation at 1 mM preincubated with NADPH regenerating system followed by microsome addition measured after 15 to 60 mins by HR-HPLC-MS method. The settings on record: 1000 µM. The format is ADME.

Data set [9] can be described thus: Drug metabolism in Sprague-Dawley rat liver microsomes assessed as CYP450-mediated (S)-2-((S)-2-amino-3-methylbutanamido)-3-hydroxy-3-methyl-N-((S)-3-methyl-1-((S)-3-methyl-1-oxo-1-(phenethylamino)butan-2-ylamino)-1-oxobutan-2-yl)butanamide formation at 1 mM preincubated with NADPH regenerating system followed by microsome addition measured after 15 to 60 mins by HR-HPLC-MS method. The format is ADME. The following applies: 1000 µM.

Data set [10] in a line: Drug metabolism in Sprague-Dawley rat liver microsomes assessed as CYP450-mediated (S)-2-((S)-2-((S)-2-amino-3-methylbutanamido)-3-methylbutanamido)-3-hydroxy-3-methyl-N-((S)-3-methyl-1-oxo-1-(phenethylamino)butan-2-yl)butanamide formation at 1 mM preincubated with NADPH regenerating system followed by microsome addition measured after 15 to 60 mins by HR-HPLC-MS method. The format is ADME. The settings on record: 1000 µM.

Structures are written as SMILES. In brackets after ≈: the same amount, converted by molar mass. Activity calls are given as the source filed them. The calls are words filed in the database; no cut-off is given here. Non-standard residues stand in square brackets, D forms with d. Residues, ends and D or L forms follow the SMILES beside them. *: point of attachment. NMeVal(β-OH) = CN[C@H](C(=O)O)C(C)(C)O; NH(4-OH-phenethyl) = Oc1ccc(CCN*)cc1; NMeL = CN[C@@H](CC(C)C)C(=O)O; NHPhenethyl = c1ccc(CCN*)cc1; NMeV = CN[C@H](C(=O)O)C(C)C A value given as a limit tells only on which side of the number the result lay.

`CN[C@H](C(=O)N(C)[C@H](C(=O)N(C)[C@H](C(=O)N(C)[C@H](C(=O)NCCc1ccccc1)C(C)C)C(C)C)C(C)C)C(C)C` (H-[NMeV][NMeV][NMeV][NMeV]-NHPhenethyl): the outcome in data set [1] was Active. Further, the “growth inhibition (GI)” value in the data set with Staphylococcus aureus [2], with Staphylococcus aureus [3], in the data set with Enterococcus faecalis, in the data set with Micrococcus luteus, in the data set with Escherichia coli and with Pseudomonas aeruginosa was “inactive” each time. Moreover, the half-life at 500 µM in [4] is greater than 240 min. In addition, the Drug metabolism entry in data set [5] and in [6] was “Metabolite_Detected” in each case.

`CN[C@@H](CC(C)C)C(=O)N(C)[C@@H](CC(C)C)C(=O)N(C)[C@@H](CC(C)C)C(=O)N(C)[C@@H](CC(C)C)C(=O)NCCc1ccccc1`: the IC50 in data set [1] (STIB900, 72 h) is 1.4 to 2.1 µg/mL (≈ 2.22 to 3.33 µM); in the data set on L6, 16.7 µg/mL (≈ 26.5 µM). Besides, the “growth inhibition (GI)” value in the data set on Staphylococcus aureus [2], in the data set on Staphylococcus aureus [3], in the data set with Enterococcus faecalis, in the data set on Micrococcus luteus, in the data set on Escherichia coli and with Pseudomonas aeruginosa was “inactive” each time.

With `CN[C@H](C(=O)N(C)[C@H](C(=O)N(C)[C@H](C(=O)N(C)[C@H](C(=O)NCCc1ccc(O)cc1)C(C)C)C(C)C)C(C)C)C(C)C` (H-[NMeV][NMeV][NMeV][NMeV]-{NH(4-OH-phenethyl)}), the Drug metabolism result in [7] is given as “Metabolite_Detected”.

Turning to `CC(C)[C@H](N)C(=O)N[C@H](C(=O)N[C@H](C(=O)N[C@H](C(=O)NCCc1ccccc1)C(C)C)C(C)C)C(C)C` (H-VVVV-NHPhenethyl), the half-life at 500 µM in data set [4] was 30 min. Besides, the Drug metabolism result in data set [8], in data set [9] and in data set [10] was “Metabolite_Detected” throughout.

As to `CN[C@H](C(=O)N(C)[C@H](C(=O)N(C)[C@H](C(=O)N(C)[C@H](C(=O)NCCc1ccccc1)C(C)C)C(C)C)C(C)C)C(C)(C)O` (H-[NMeVal(β-OH)][NMeV][NMeV][NMeV]-NHPhenethyl), the Drug metabolism entry in [7] is reported as “Metabolite_Detected”.

As to `CN[C@@H](CC(C)C)C(=O)N(C)[C@@H](CC(C)C)C(=O)N(C)[C@@H](CC(C)C)C(=O)N(C)[C@@H](CC(C)C)C(=O)NCCc1ccc(O)cc1` (H-[NMeL][NMeL][NMeL][NMeL]-{NH(4-OH-phenethyl)}), the “growth inhibition (GI)” value in the data set with Staphylococcus aureus [2], with Staphylococcus aureus [3], in the data set with Enterococcus faecalis, in the data set with Micrococcus luteus, in the data set on Escherichia coli and with Pseudomonas aeruginosa was “inactive” in each case. The compound also yielded an IC50 in the data set with L6 of 30.6 µg/mL (≈ 47.4 µM).
